Measured values from patent publication US4166125A, “2-Oxo-phenylbutanoic acid derivatives” (Grelan Pharmaceutical Co., Ltd., priority 1977, dated 1979).

What was measured:
[1] = test system: writhing syndrome due to acetic acid; assay: Analgesic activity, stretching method (oral administration); format: in vivo, mouse (ddY-strain)
Procedure: The experiment was carried out according to a method conforming to Koster R. et al [Federation Proceedings 18, 412, (1960)]. […] 30 Minutes after administration of the test compound, 0.6% acetic acid aqueous solution was injected intraperitoneally to the mice in an amount of 0.1 ml per 10 g of body weight of the mouse, and then frequency of writhing syndrome due to acetic acid was counted for 20 minutes. Inhibition percent to the writhing syndrome was calculated in comparison with frequency of writhing syndrome counted on mice of a control group, to which only 1% gum arabic solution was orally administered.

[2] = Stability on storage at 50° C. and humidity of 70% for 1 month; format: physicochemical; conditions: among the compounds (I)
Procedure: For example, when the compounds (I) are kept at temperature of 50° C., and humidity of 70% for 1 month, no substantial change with respect to their appearances and values of quantitative analysis was observed, and no decomposition product was detected by thin-layer chromatography. Thus compounds (I) are prepared for administration in the form of pharmaceutical compositions according to conventional methods in the field of the art, and it is possible to prepare a pharmaceutical composition which comprises a therapeutically effective amount of at least one compound of the general formula (I) as an active ingredient, i.e. anti-inflammatory composition, in solid administration form (e.g. tablets, granules, powders, capsules, suppository), and liquid administration form (e.g. suspension, emulsion). In that case, as carrier, vehicle, solvent or dispersant, there may be used any of those which are known in the field of art. There may be exemplified water, starch, lactose, crystalline cellulose, magnesium stearate, hydroxypropyl cellulose, mannitol, carboxymethyl cellulose, glycol, ethanol, corn oil, peanut oil, castor oil, cacao butter, isocacao, polyoxyethylene stearate. […]

[3] = test system: gross behaviour of the rats; assay: Gross behaviour (2) (oral administration); conditions: oral, 500, 1000, 2000 and 4000 mg/Kg, 4 hours
Procedure: In 0.3% CMC-Na solution was suspended 2-oxo-3-[4-(1-oxo-2-isoindolinyl)phenyl]butanamide in at a concentration of 20%. The 20% CMC-Na suspension was administered orally to 3 male rats in each group (Sprague-Dawley strain) weighing 150 to 200 g. The dosage of the compound were 500, 1000, 2000 and 4000 mg/Kg. […] To rats of a control group was administered orally only 0.3% CMC-Na solution.

gastric mucosa [4] = assay: Effect on gastric mucosa (2) (oral administration); format: in vivo, rat (Sprague-Dawley strain); conditions: rats, 4 hours
Procedure: 4 Hours after the administration, the rat was sacrificed with ether, and its stomach was removed. The stomach was treated with 5% formalin for 3 minutes, and gastric mucosa was observed under a stereoscopic microscope. When gastric lesion in the mucosa was found, the number of the lesion in the mucosa was counted.

carrageenin edema = assay: Inhibitory effect on carrageenin edema (oral administration); format: in vivo, rat (Sprague-Dawley strain)
Procedure: Inhibitory effect on carrageenin edema.
The experiment was carried out according to a method conforming to Van Arman, C. […] One hour after the administration of the test compound, 0.1 ml of 1% carrageenin solution in physiological saline was injected subcutaneously into the plantar sarface of the right hind paws of the rats. One hour after injection of carrageenin, the volume of the injected paws was measured hourly for 4 hours. Inhibition percent to carrageenin edema (%)* was calculated in comparison with the volume of paws of rats of a control group, to which only 0.3% CMC-Na solution was orally administered. [formula]

gastric mucosa [5] = assay: Effect on gastric mucosa (1) (oral administration); format: in vivo, mouse (ddY-strain); set-up: unit not given here; conditions: mice, 4 hours
Procedure: 4 Hours after the administration, the mouse was sacrificed with ether, and its stomach was removed. The stomach was treated with 5% formalin for 3 minutes, and gastric mucosa was observed under a stereoscopic microscope. When gastric lesion in the mucosa was found, the length of each lesion was measured. Degree of gastric damage (i.e. GD50)* was calculated on the basis of the length of the lesion of each mouse.
Remark *: GD50 : The value corresponding to the relative frequency of 50% on the normal probability paper plotted the length of gastric lesions of each mouse.

[6] = Acute toxicity (2) (oral administration); format: in vivo; conditions: in vivo; rat, oral, 7 days
Procedure: (§1) After administration of the compound, the number of rats that died during 7 days was observed, and LD50 value was calculated on the basis of the mortality.

rats = assay: Acute toxicity (2) (oral administration); format: in vivo; conditions: rats
Procedure: as §1

[7] = test system: gross behaviour of the mice; assay: Gross behaviour (1) (oral administration), Irwin's multi-dimensional observation; conditions: oral, 500, 1000, 2000 and 4000 mg/Kg, 4 hours
Procedure: In 1% gum arabic solution was suspended 2-oxo-3-[4-(1-oxo-2-isoindolinyl)phenyl]butanamide at a concentration of 20%. […] The dosages of the compound were 500, 1000, 2000 and 4000 mg/Kg.
To mice of a control group was administered orally only 1% gum arabic solution.

[8] = oral, 500, 1000, 2000 and 4000 mg/Kg, 7 days

SMILES: CC(C(=O)C(N)=O)c1ccc(N2Cc3ccccc3C2=O)cc1 (centres unmarked) [2-oxo-3-[4-(1-oxo-2-isoindolinyl)phenyl]butanamide]
- Inhibition to writhing syndrome ([1]; 100 mg/Kg oral): 4%
- Inhibition to writhing syndrome ([1]; 200 mg/Kg oral): 33%
- Inhibition to writhing syndrome ([1]; 400 mg/Kg oral): 62%
- Dose-response of inhibition to writhing syndrome ([1]; dose range of 100 to 400 mg/Kg): clear dose-response
- Stability (in words) [2]: more stable
- Abnormal behaviour (depression to spontaneous activity, loss of righting reflex, tremor, convulsion, abnormal gait, loss of pinna reflex, loss of corneal reflex, abnormality of respiration) [3]: not observed
- Mean number of gastric lesion (gastric mucosa [4]; 50 mg/Kg oral): 0
- Mean number of gastric lesion (gastric mucosa [4]; 100 mg/Kg oral): 0
- Mean number of gastric lesion (gastric mucosa [4]; 200 mg/Kg oral): 0.3
- Mean number of gastric lesion (gastric mucosa [4]; 400 mg/Kg oral): 1.6
- Mean number of gastric lesion (gastric mucosa [4]; 800 mg/Kg oral): 0.4
- Inhibition to carrageenin edema (carrageenin edema; 12.5 mg/Kg oral, 3 hour after administration): 29.2 ± 6.4%
- Inhibition to carrageenin edema (carrageenin edema; 12.5 mg/Kg oral, 4 hour after administration): 29.3 ± 4.4%
- Inhibition to carrageenin edema (carrageenin edema; 25 mg/Kg oral, 3 hour after administration): 29.2 ± 9.0%
- Inhibition to carrageenin edema (carrageenin edema; 25 mg/Kg oral, 4 hour after administration): 26.6 ± 8.2%
- Inhibition to carrageenin edema (carrageenin edema; 50 mg/Kg oral, 3 hour after administration): 35.6 ± 3.9%
- Inhibition to carrageenin edema (carrageenin edema; 50 mg/Kg oral, 4 hour after administration): 34.1 ± 1.2%
- Inhibition to carrageenin edema (carrageenin edema; 100 mg/Kg oral, 3 hour after administration): 51.0 ± 8.6%
- Inhibition to carrageenin edema (carrageenin edema; 100 mg/Kg oral, 4 hour after administration): 42.8 ± 6.9%
- ED40 (carrageenin edema; Rattus norvegicus, oral, from inhibition percent to edema at 3 hours after administration, read-out: ED40): 48 mg/kg
- Degree of gastric damage (GD50) (gastric mucosa [5]; 100 mg/Kg oral): 1.0
- Degree of gastric damage (GD50) (gastric mucosa [5]; 200 mg/Kg oral): 7.0
- Degree of gastric damage (GD50) (gastric mucosa [5]; 400 mg/Kg oral): 2.5
- LD50 at 168 h [6]: > 4000 mg/kg
- Macroscopic observation of organs in head, thorax and abdominal cavity (rats; after 7 days): No abnormality was observed
- Abnormal behaviour (rats; [8]): not observed
- Death (rats; [8]): not observed
- Inhibition to increase of body weight (rats; [8]): not observed
- Abnormal behaviour (depression to spontaneous activity, loss of righting reflex, tremor, convulsion, abnormal gait, loss of pinna reflex, loss of corneal reflex, abnormality of respiration) [7]: not observed
